The IC50 is the concentration at which inhibition is half-maximal. Read a high IC50 as weaker potency in that assay.

This is an account of results in patent publication US12109179B2, “Pharmaceutical compositions and combinations comprising inhibitors of the androgen receptor and uses thereof” (ESSA Pharma Inc., priority 2019, dated 2024).

SMILES strings stand for the structures.

Experiment [1] has as its system Androgen-induced PSA-luciferase (LNCaP cells). The experiment in a line: Androgen-induced PSA (6.1 kb)-luciferase reporter assay in LNCaP cells. It counts as cell-based. To be noted: Homo sapiens, R1881 (1 nM) 24 h. The procedure: To determine the IC50, treatments were normalized to the maximum activity with androgen-induction (in the absence of test compounds, vehicle only) (Table 1).
Luciferase Assay: Lysates were thawed on ice then collected into V-bottom 96-well tissue culture plates. Lysates were centrifuged at 4° C. for 5 minutes at 4000 rpm. To measure luminescence of LNCaP cell lysates the Firefly Luciferase Assay System (Promega) was employed, according to manufacturer's protocol.
Comparisons between treatment and control groups were compared using Two-Way ANOVA with post-hoc Dunnett's and Tukey's tests. Differences were considered statistically significant at P values less than 0.05. Densitometric quantification of relative AR levels was determined by Image.
For orientation: Reporter assays use an easily measured gene product as a stand-in for the process of interest.

The test system of experiment [2] is mCRPC patients with bone metastases. The note with it: cited from earlier work.
The subject of experiment [3] is AR transcriptional activity (PSA (6.1 kb)-luciferase, LNCaP cells). The experiment in a line: PSA (6.1 kb)-luciferase assay with Pin1 inhibitors and AR NTD inhibitors (Examples 36-37). It counts as cell-based. The note with it: for IC50: Homo sapiens, 24 h. The procedure: Statistical analyses: Statistical significance was determined with GraphPad Prism 8 software using two-way ANOVA with Dunnett's multiple comparisons test unless indicated otherwise; *P<0.05, **P<0.01, ***P<0.001; ns, not significant.
Data shown in Figures are the means±SE from 4 independent experiments.

Experiment [4] concerns AR-positive breast cancer cell lines. The experiment in a line: Cell proliferation (BrdU) and viability (alamarBlue) of breast cancer cell lines. It counts as cell-based. The note with it: BrdU 4 days (enzalutamide 10 μM, EPI-002 35 μM); alamarBlue 2 or 3 days.
Experimental: Cell Proliferation and Viability Assay: Each breast cancer cell line was plated at 5,000 cells per well in a 96-well plate in culture medium containing 5% or 10% fetal bovine serum. […] For proliferation assay, cells were treated for 4 days and labeled with BrdU for 2 hours. Incorporation of BrdU was measured by enzyme-linked immunosorbent assay (ELISA; Cell Proliferation ELISA, BrdU (colorimetric) from Roche). For cell viability assays, alamarBlue was used for assess cell viability after 2 or 3 days of treatment.
BrdU incorporation was used to assess cell proliferation.
AlamarBlue was used to assess cell viability. Results are presented as mean±SEM (n=3 except n=6 for LNCaP).
The subject of a further experiment is C4-2B-MDVR. The experiment in a line: Colony formation, C4-2B-MDVR. It counts as cell-based, human.
The subject of another experiment is LN95-D3 cells. Briefly: Cell cycle analysis of LN95-D3 cells. The note with it: 1.5% charcoal-stripped serum. It counts as cell-based. The protocol: Flow cytometry: Fixed cells were probed with anti-BrdU-FITC antibody (BD Biosciences) and stained with 7AAD (Sigma). Data was acquired on a FACSCalibur flow cytometer (BD Biosciences) with CellQUEST Pro and later analyzed using FlowJo V10 software.
After incubating with the compounds, cells were labelled with BrdU for 2 h and then processed for flow cytometry.

A further experiment deals with LN95 cells. The experiment in a line: Senescence-associated β-gal staining of LN95 cells. The format is cell-based. The note with it: 1.5% charcoal-stripped serum, 3 days. The procedure: β-galactosidase staining: Cells grown in chamber slides and treated with compounds were fixed at room temperature with 2% formaldehyde/0.2% glutaraldehyde, and then incubated at 37° C. with fresh β-gal staining solution (Cell Signaling) titrated to pH 6.0. Staining was optimal after incubating the slides overnight for 16-18 hours.
Results shown are representative of 3 independent experiments.

The subject of experiment [5] is reporter constructs regulated by CMV promoter or AP-1 binding sites. Briefly: Control reporter constructs (CMV promoter, AP-1 binding sites). The format is cell-based. From the text: 2010, and Myung et al., J Clin Invest. 2013.
For the next experiment, the system named is PSA protein. The experiment in a line: Western blot of PSA protein in LNCaP lysates. The format is cell-based. To be noted: ATRA (10 μM), R1881 (1 nM) 24 h. A general note: A western blot detects proteins with antibodies after separation by electrophoresis.
A further experiment concerns LNCaP95 cells. Briefly: γH2AX DNA damage in LNCaP95 cells with or without irradiation. It counts as cell-based. The note with it: ENZ 5 μM, with or without irradiation (4Gy), 48 h. The protocol:
Further, cells were labelled for γH2AX and 7AAD and analyzed by flow cytometry (FIG. 12B). The percentage of cells containing above 10 γH2AX foci (mean±SD from three independent experiments) are represented in FIG. 12C.
Flow Cytometry: Cell cycle analysis was conducted by flow cytometry using BrdU-FITC and 7AAD. DNA damage was analyzed using γH2AX antibody (CST) and 7AAD. Cells were analyzed on FACScalibur flow cytometer.
Immunofluorescence staining: γH2AX antibody (Millipore mouse), Alexa488 anti-mouse antibody were used for staining. Cells were analyzed on Axio observer (×20 magnification) equipped with epitome 2.
Statistical analysis: Graphs represent the means±SEM from three independent experiments performed with three technical replicates. Statistical significance was determined using GraphPad Prism software with a one-way ANOVA; *P<0.05, **P<0.01, ***P<0.001, ****P<0.0001.

Take `CCS(=O)(=O)C[C@@H](O)COc1ccc(C(C)(C)c2cc(Cl)c(OC[C@H](O)CCl)c(Cl)c2)cc1` [Compound 14a]: in [1], the half-maximal inhibitory concentration (IC50) is 950 nM.
In the case of `[Cl][223Ra][Cl]` [radium 223 dichloride], the “increase overall survival (OS)” value in experiment [2] was “approximately 3 months”.
Regarding `CC(=O)C(=O)Nc1ccc(C(C)(C)c2cc(Cl)c(OCCCCl)c(Cl)c2)cc1` [AA85], the IC50 in experiment [1] was found to be 368 nM.
The molecule `COCC(=O)COc1ccc(C(C)(C)c2cc(Cl)c(OCC(O)CCl)c(Cl)c2)cc1` (stereo not drawn) [AA56] showed an IC50 in experiment [1] of 344 nM.
Molecule `CC(C)(c1ccc(OC[C@H](O)CO)cc1)c1ccc(OC[C@H](O)CCl)cc1` [EPI-002] yielded a concentration for half-maximal inhibition (IC50) in [3] of 7900 ± 1200 nM. The “decrease in IC50 values in the presence of ATRA” value in [3] (PSA (6.1 kb)-luciferase) came to 2 fold. In addition, in experiment [3] (PSA (6.1 kb)-luciferase, R1881 (1 nM)), the “effect of combination with ATRA on inhibiting AR transcriptional activity” value is recorded as “synergistic effect”. The “cell proliferation and viability” value in [4] is given as “significantly inhibited”. In addition, in the experiment on C4-2B-MDVR, the “colony formation, combination with Enzalutamide” value is given as “reduced colony formation”. In addition, in the experiment with LN95-D3 cells, the “combination with ATRA: G1 arrest and decrease of S phase population” value is listed as “synergistic”. Further, in the experiment with LN95 cells, the “percentage of β-gal-positive cells, combination with ATRA” value was “synergy”.
On to `CC1=C(/C=C/C(C)=C/C=C/C(C)=C/C(=O)O)C(C)(C)CCC1` [ATRA, all-trans retinoic acid], for which the “inhibitory effects on CMV promoter or AP-1 reporter constructs” value in experiment [5] is given as “No inhibitory effects”. Besides, in the experiment on PSA protein, the “androgen-induced expression of PSA protein” value is “decreased”. In addition, the cell cycle effect entry in the experiment on LN95-D3 cells was “arrested cells in G1 and decreased the S phase population in a dose-dependent manner”.
On to `CC(O)(CCl)COc1c(Cl)cc(C(C)(C)c2ccc(OCC(=O)CNS(C)(=O)=O)cc2)cc1Cl` (stereo not drawn) [AA52], for which half-maximal inhibition in experiment [1] (IC50) was put at 74 nM. This lies in the double-digit nanomolar range.
On the same count and under the same terms, with `CC(C)(c1ccc(OCC(=O)CNS(C)(=O)=O)cc1)c1cc(Cl)c(OCCCCl)c(Cl)c1` [AA31, N-(3-(4-(2-(3,5-dichloro-4-(3-chloropropoxy)phenyl)propan-2-yl)phenoxy)-2-oxopropyl)methanesulfonamide] the figure was 51 nM.
On to `CC(C)(c1ccc(OCC(=O)CNS(C)(=O)=O)cc1)c1cc(Cl)c(OCCCl)c(Cl)c1` [AA33], for which, in experiment [1], the concentration for half-maximal inhibition (IC50) was 38 nM.
On the same count and under the same terms, the figure for `CC(C)(c1ccc(OC[C@H](O)Cn2ccnc2)cc1)c1cc(Cl)c(OC[C@H](O)CCl)c(Cl)c1` [Compound 9a] is 3120 nM.
Regarding `CC1=C(/C=C/C(C)=C/C=C/C(C)=C\C(=O)O)C(C)(C)CCC1` [Compound 13CisRA], the “inhibitory effects on CMV promoter or AP-1 reporter constructs” value in experiment [5] is listed as “No inhibitory effects”.
`CC(C)(c1ccc(OC[C@H](O)CN)cc1)c1cc(Cl)c(OC[C@H](O)CCl)c(Cl)c1` [Compound 12a, (R)-1-amino-3-(4-(2-(3,5-dichloro-4-((S)-3-chloro-2-hydroxypropoxy)phenyl)propan-2-yl)phenoxy)propan-2-ol] returned an IC50 in experiment [1] of 2260 nM.
On the same count and under the same terms, the figure for `CC(C)(c1ccc(OC[C@H](O)CN2CCOCC2)cc1)c1cc(Cl)c(OC[C@H](O)CCl)c(Cl)c1` [Compound 11a] is 1050 nM.
As to `CC(C)(c1ccc(OC[C@H](O)CNS(C)(=O)=O)cc1)c1cc(Cl)c(OC[C@H](O)CCl)c(Cl)c1` [Compound 13a], the IC50 was determined as 1050 nM in experiment [1] and 740 ± 1200 nM in experiment [3].
Molecule `CC(C)(c1ccc(OC[C@H](O)CO)cc1)c1cc(Cl)c(OC[C@H](O)CCl)c(Cl)c1` [Compound 1a] showed a concentration for half-maximal inhibition (IC50) in experiment [1] of 1410 nM.
In turn, `COC[C@@H](O)COc1ccc(C(C)(C)c2cc(Cl)c(OC[C@H](O)CCl)c(Cl)c2)cc1` [Compound 5a] displayed a half-inhibitory concentration (IC50) in [1] of 1030 nM.
Take `CNC(=O)c1ccc(N2C(=S)N(c3ccc(C#N)c(C(F)(F)F)c3)C(=O)C2(C)C)cc1F` [Enzalutamide, enzalutamide]: the “percentage of cells containing above 10 γH2AX foci” value in the experiment with LNCaP95 cells is “no effect”. In the experiment on LN95-D3 cells, the “combination with ATRA: G1 arrest and decrease of S phase population” value is “not”.
